Publication PMC11882969 (Nature Communications, 2025)
Where “and” joins values, the source holds several entries; their conditions need not be identical. Identical values can stand only once. Like-named read-outs stand apart in the source and are kept apart here.

Experiments:
CB1 (rCB1) = CB1 (rCB1) (Rattus norvegicus, UniProt P20272); experiment: Radioligand competition binding, [3H]-CP-55,940, rat brain membranes
hCB1 = hCB1 (Homo sapiens, UniProt P21554); experiment: bioSensAll ebBRET signaling profiling, hCB1; assay type: cell-based; set-up: host or cells: HEK293SL cells, transient PEI transfection; conditions: for Gi1 hCB1 response: Gi1 biosensor; for Gi1 hCB1 / GoB hCB1: single replicate values, FigS6a; for EC50: read-out: EC50 [95% CI]; for Emax: normalized to CP-55,940
Sequence of hCB1 (P21554 whole entry): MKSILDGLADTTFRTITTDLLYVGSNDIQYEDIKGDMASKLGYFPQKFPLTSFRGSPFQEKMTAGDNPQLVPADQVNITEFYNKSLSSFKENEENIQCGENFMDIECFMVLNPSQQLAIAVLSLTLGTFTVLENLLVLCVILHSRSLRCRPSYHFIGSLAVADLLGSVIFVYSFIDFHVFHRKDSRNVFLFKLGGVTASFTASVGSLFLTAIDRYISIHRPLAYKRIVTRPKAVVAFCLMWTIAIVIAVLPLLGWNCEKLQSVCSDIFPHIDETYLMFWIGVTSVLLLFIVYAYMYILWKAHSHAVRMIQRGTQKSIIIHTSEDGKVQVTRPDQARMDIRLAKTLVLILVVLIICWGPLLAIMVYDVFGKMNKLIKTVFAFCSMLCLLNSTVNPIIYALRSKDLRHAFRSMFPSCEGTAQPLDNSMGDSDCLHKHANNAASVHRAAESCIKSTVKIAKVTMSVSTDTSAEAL

Sequence of CB1 (rCB1) (P20272 whole entry): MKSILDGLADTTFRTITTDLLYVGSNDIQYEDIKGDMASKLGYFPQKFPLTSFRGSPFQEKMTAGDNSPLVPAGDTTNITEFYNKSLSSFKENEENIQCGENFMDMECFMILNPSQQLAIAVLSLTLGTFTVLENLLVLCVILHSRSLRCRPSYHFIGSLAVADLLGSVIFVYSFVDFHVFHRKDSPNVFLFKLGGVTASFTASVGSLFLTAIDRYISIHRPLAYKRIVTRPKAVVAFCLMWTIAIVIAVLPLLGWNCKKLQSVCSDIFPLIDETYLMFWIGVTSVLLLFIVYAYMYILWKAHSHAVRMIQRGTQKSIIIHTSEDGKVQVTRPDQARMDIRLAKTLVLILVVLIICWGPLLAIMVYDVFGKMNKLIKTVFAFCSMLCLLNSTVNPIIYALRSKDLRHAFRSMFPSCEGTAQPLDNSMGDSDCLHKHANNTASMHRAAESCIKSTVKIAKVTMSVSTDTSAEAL

Cc1cc(C(=O)NC(c2ccccc2)c2ccco2)nn1-c1cccc(C(F)(F)F)c1 (stereo not drawn) [‘1081]
pKi [95% CI] (CB1 (rCB1); rCB1): 6.9 [6.8 – 7.1] | Ki (CB1 (rCB1); read-out: Ki [95% CI], rCB1, [3H]-CP-55,940): 0.116 µM | Gi1 hCB1 response (hCB1; Log [Compound] (M) -4.22186): 74.944 | Gi1 hCB1 response (hCB1; Log [Compound] (M) -4.63927): 67.9833 | Gi1 hCB1 response (hCB1; Log [Compound] (M) -5.05788): 54.8454 | Gi1 hCB1 response (hCB1; Log [Compound] (M) -5.47381): 47.9296 | Gi1 hCB1 response (hCB1; Log [Compound] (M) -5.89285): 64.2009 | Gi1 hCB1 response (hCB1; Log [Compound] (M) -6.31878): 42.1551 | Gi1 hCB1 response (hCB1; Log [Compound] (M) -6.72585): 23.6233 | Gi1 hCB1 response (hCB1; Log [Compound] (M) -7.14267): 32.464 | Gi1 hCB1 response (hCB1; Log [Compound] (M) -7.55284): 4.129 | Gi1 hCB1 response (hCB1; Log [Compound] (M) -8): -0.3248 | Gi1 hCB1 response (hCB1; Log [Compound] (M) -8.22186): 3.077 | Gi1 hCB1 response (hCB1; Log [Compound] (M) -8.39794): 0.4809 | Gi1 hCB1 response (hCB1; Log [Compound] (M) -8.68787): 1.913 | Gi1 hCB1 response (hCB1; Log [Compound] (M) -9.15521): -3.123 | Gi1 hCB1 response (hCB1; Log [Compound] (M) -9.61989): -0.5486 | Gi1 hCB1 response (hCB1; Log [Compound] (M) -10.5529): 3.637 | Gi1 hCB1 response (hCB1; Log [Compound] (M) -11.0177): -17.939 | Gi1 hCB1 response (hCB1; Log [Compound] (M) -11.4949): 0.01089 | Gi1 hCB1 response (hCB1; Log [Compound] (M) -11.9208): -4.7116 | Gi1 hCB1 response (hCB1; Log [Compound] (M) -12.3979): -3.011 | Gi1 hCB1 response (hCB1; Log [Compound] (M) -13, individual replicate values): 10.3511 and -8.673 | Gi1 hCB1 (hCB1; Log [Compound] (M) -4.22186): 52.0891 | GoB hCB1 (hCB1; Log [Compound] (M) -4.22186): 46.0629 | Gi1 hCB1 (hCB1; Log [Compound] (M) -4.63927): 50.1467 | GoB hCB1 (hCB1; Log [Compound] (M) -4.63927): 47.4116 | Gi1 hCB1 (hCB1; Log [Compound] (M) -5.05788): 48.6204 | GoB hCB1 (hCB1; Log [Compound] (M) -5.05788): 38.1682 | Gi1 hCB1 (hCB1; Log [Compound] (M) -5.47381): 43.0088 | GoB hCB1 (hCB1; Log [Compound] (M) -5.47381): 38.8336 | Gi1 hCB1 (hCB1; Log [Compound] (M) -5.89285): 42.6234 | GoB hCB1 (hCB1; Log [Compound] (M) -5.89285): 33.6364 | Gi1 hCB1 (hCB1; Log [Compound] (M) -6.31878): 36.4105 | GoB hCB1 (hCB1; Log [Compound] (M) -6.31878): 34.6075 | Gi1 hCB1 (hCB1; Log [Compound] (M) -6.72585): 32.0322 | GoB hCB1 (hCB1; Log [Compound] (M) -6.72585): 26.2812 | Gi1 hCB1 (hCB1; Log [Compound] (M) -7.14267): 17.1706 | GoB hCB1 (hCB1; Log [Compound] (M) -7.14267): 21.1739 | Gi1 hCB1 (hCB1; Log [Compound] (M) -7.55284): 12.4531 | GoB hCB1 (hCB1; Log [Compound] (M) -7.55284): 14.1424 | Gi1 hCB1 (hCB1; Log [Compound] (M) -8): 6.533 | GoB hCB1 (hCB1; Log [Compound] (M) -8): 4.935 | Gi1 hCB1 (hCB1; Log [Compound] (M) -8.22186): 6.209 | GoB hCB1 (hCB1; Log [Compound] (M) -8.22186): 1.626 | Gi1 hCB1 (hCB1; Log [Compound] (M) -8.39794): 4.544 | GoB hCB1 (hCB1; Log [Compound] (M) -8.39794): 0.2593 | Gi1 hCB1 (hCB1; Log [Compound] (M) -8.68787): 3.434 | GoB hCB1 (hCB1; Log [Compound] (M) -8.68787): -1.683 | Gi1 hCB1 (hCB1; Log [Compound] (M) -9.15521): 3.357 | GoB hCB1 (hCB1; Log [Compound] (M) -9.15521): -3.445 | Gi1 hCB1 (hCB1; Log [Compound] (M) -9.61989): 1.492 | GoB hCB1 (hCB1; Log [Compound] (M) -9.61989): -0.6039 | Gi1 hCB1 (hCB1; Log [Compound] (M) -10.0969): 1.199 | GoB hCB1 (hCB1; Log [Compound] (M) -10.0969): -2.51 | Gi1 hCB1 (hCB1; Log [Compound] (M) -10.5529): 3.496 | GoB hCB1 (hCB1; Log [Compound] (M) -10.5529): -5.459 | Gi1 hCB1 (hCB1; Log [Compound] (M) -11.0177): 1.214 | GoB hCB1 (hCB1; Log [Compound] (M) -11.0177): -3.661 | Gi1 hCB1 (hCB1; Log [Compound] (M) -11.4949): 1.523 | GoB hCB1 (hCB1; Log [Compound] (M) -11.4949): 0.9786 | Gi1 hCB1 (hCB1; Log [Compound] (M) -11.9208): 2.833 | GoB hCB1 (hCB1; Log [Compound] (M) -11.9208): 3.047 | Gi1 hCB1 (hCB1; Log [Compound] (M) -12.3979): 0.3511 | GoB hCB1 (hCB1; Log [Compound] (M) -12.3979): -1.071 | Gi1 hCB1 (hCB1; Log [Compound] (M) -12.8861): 2.432 | GoB hCB1 (hCB1; Log [Compound] (M) -12.8861): -2.402 | Gi1 hCB1 (hCB1; Log [Compound] (M) -13): 2.448 and 3.003 | GoB hCB1 (hCB1; Log [Compound] (M) -13): -0.01046 and 0.7448 | pEC50 [95% CI] (hCB1; hCB1 Gi1): 6.8 [6.7 – 6.9] | pEC50 [95% CI] (hCB1; hCB1 GoB): 7.0 [6.8 – 7.3] | pEC50 [95% CI] (hCB1; hCB1 Gz): 6.7 [6.2 – 7.1] | EC50 (hCB1; hCB1 Gi1): 0.15 µM | EC50 (hCB1; hCB1 GoB): 0.0917 µM | EC50 (hCB1; hCB1 Gz): 0.225 µM | Emax (hCB1; read-out: Emax [95% CI], hCB1 Gi1): 49% | Emax (hCB1; read-out: Emax [95% CI], hCB1 GoB): 45% | Emax (hCB1; read-out: Emax [95% CI], hCB1 Gz): 72%
